Results reported in US5134150A, “Inhibition of the 5-lipoxygenase pathway” (priority 1989, dated 1992).

Experiments:
[1] = test system: Infiltration of Polymorphonuclear Leukocytes into Sites of Carrageenan-Induced Inflammation; assay: Mouse carrageenan peritonitis (PMN infiltration); type: in vivo, mouse (male Balb/c); details: carrageenan peritonitis, mice
Text: (§1) In the following Examples where mice were used, they were male Balb/c mice (20-28 g), and where rats were used, they were male Lewis rats (180-210 g). All mice and rats were obtained from Charles River Breeding Laboratories, Kingston, N.Y. Within a single experiment, mice and rats were sex and age matched.
(§2) The compounds of Formula (I) were used either as the free base or in the appropriate salt form. Levamisole was used as the hydrochloride salt. The compounds were homogenized in 0.5% tragacanth. Compounds were administered by gavage at the indicated dose in a final volume of 10 ml/kg. Nordihydroguaiaretic acid (NDGA) was solubilized in dimethylacetamide and diluted with olive oil for subcutaneous administration.
Mice were pretreated with either the test compound or vehicle one hour before the intraperitoneal injection of a 1.0% carrageenan suspension in saline (0.2 ml/mouse). Mice were sacrificed by cervical dislocation two hours after injection, and 3.0 ml of phosphate buffered saline, without Ca^++ or Mg^++, was injected into the peritoneum. Following massage, a 2.0 ml aliquot of the lavage fluid was removed, and the total cell count determined on a Coulter counter and differential cell count determined by microscopic examination of Giesma-stained slides.

[2] = biological target: T1, Cyclooxygenase (Rattus norvegicus, UniProt Q63921); assay: Cyclooxygenase activity (PGD2) in RBL-1 cell extracts, 10,000 x g supernatant; type: biochemical; details: Table 8
T1 construct: The activities of these enzymes in extracts of RBL-1 cells were assayed; host or cells: RBL-1
T1 sequence (Q63921 27-602): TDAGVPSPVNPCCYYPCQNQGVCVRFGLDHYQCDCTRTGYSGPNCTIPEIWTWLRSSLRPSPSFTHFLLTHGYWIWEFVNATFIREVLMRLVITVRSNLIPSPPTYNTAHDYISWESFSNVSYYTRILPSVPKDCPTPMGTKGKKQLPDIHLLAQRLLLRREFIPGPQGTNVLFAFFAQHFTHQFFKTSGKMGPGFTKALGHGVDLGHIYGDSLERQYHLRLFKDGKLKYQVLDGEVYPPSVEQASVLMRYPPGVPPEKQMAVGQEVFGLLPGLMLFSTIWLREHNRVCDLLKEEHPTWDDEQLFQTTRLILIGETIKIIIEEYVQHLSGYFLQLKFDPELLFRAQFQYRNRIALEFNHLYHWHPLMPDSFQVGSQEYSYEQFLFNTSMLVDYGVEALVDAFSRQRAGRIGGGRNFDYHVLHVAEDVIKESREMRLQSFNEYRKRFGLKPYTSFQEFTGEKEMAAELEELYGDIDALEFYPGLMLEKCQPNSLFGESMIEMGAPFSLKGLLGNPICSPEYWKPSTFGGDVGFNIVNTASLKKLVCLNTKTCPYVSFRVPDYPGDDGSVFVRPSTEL
Protocol: For in vitro experiments, compounds were dissolved at appropriate concentrations in ethanol or DMSO (dimethylsulfoxide) (final concentration≤1.0%) and then diluted to final concentrations using the buffers indicated in the text.
RBL-1 cells were obtained from the American Type Culture Collection (#CRL 1378) and were grown at 37° C. (5% CO2 in air) in spinner culture in MEM supplemented with 10% heat inactivated fetal calf serum. Harvested cells were washed with 50 mM sodium phosphate buffer, pH 7.0, containing 1 mM EDTA and 0.1% gelatin, resuspended in fresh buffer (5×10^7 cells/ml) and disrupted by nitrogen cavitation using the Parr bomb at 750 psi for 10 min. The broken cell extract was then centrifuged at 10,000× g for 20 minutes (min) and the supernatant centrifuged at 100,000 xIg for 60 min. Aliquots (0.25 mls) of the supernatant were preincubated with or without drugs for 10 min, after which 10 μl CaCl2 (50 mM) was added and the reaction was initiated with 2.5 μl of 2.5 mM arachidonic acid-1-^14 C (final concentration was 25 μM; specific activity 20,000 dpm/nmole). After incubation for 3 min at 37° C., the reaction was terminated by addition of 2 volumes (0.5 ml) ice cold acetone and the sample was allowed to deproteinize on ice for 10 min prior to centrifugation at 1,000× g for 10 min. […] Arachidonic acid, 5-HETE, LTB4 and PGD2 were quantified with a Berthold LB 2832 autoscanner.

[3] = test system: Arachidonic Acid-Induced Rat Paw Edema; assay: Arachidonic acid-induced rat paw swelling; type: in vivo, rat (male Lewis)
Text: as §1
Auranofin, phenidone, indomethacin, naproxen, and ibuprofen were each used as the free base. The compounds of Formula (I) were used either as the free base or in the appropriate salt form. Levamisole was used as the hydrochloride salt. The compounds were homogenized in 0.5% tragacanth. Compounds were administered by gavage at the indicated dose in a final volume of 10 ml/kg. Nordihydroguaiaretic acid (NDGA) was solubilized in dimethylacetamide and diluted with olive oil for subcutaneous administration.
After determining pretreatment paw volumes by plethysmography by the method of Webb and Griswold, J. Pharmacol. Methods, 12, 149-153 (1984), rats were given test compound or vehicle one hour prior to the subplantar injection of 0.1 ml of 1 mg/ml arachidonic acid. Paw volumes were then remeasured and compared to pretreatment values and the increase in paw volume was expressed as mean values ± S.D.

[4] = test system: LTB4 synthesis by peritoneal exudate cells; assay: Ex vivo production of LTB4 from peritoneal exudate cells of drug-treated mice; type: in vivo, mouse; details: for inhibition at 200 mg/kg: Mus musculus, po, 200 mg/kg p.o.
Text: In the following Examples where mice were used, they were male Balb/c mice (20-28 g), and where rats were used, they were male Lewis rats (180-210 g). All mice and rats were obtained from Charles River Breeding Laboratories, Kingston, N.Y. Within a single experiment, mice and rats were sex and age matched. Auranofin, phenidone, indomethacin, naproxen, and ibuprofen were each used as the free base. The compounds of Formula (I) were used either as the free base or in the appropriate salt form. Levamisole was used as the hydrochloride salt. […] Nordihydroguaiaretic acid (NDGA) was solubilized in dimethylacetamide and diluted with olive oil for subcutaneous administration. Carrageenan-induced peritoneal exudate cells from normal or drug-treated mice were washed and suspended in 2.2 ml of phosphate buffered saline. […] The cell preparation was centrifuged at 1500 rpm for 10 min and the supernatant was extracted using a C-18 silica column. […] A tetrahydrofuran, methanol, water, acetic acid (25:30:45: 0.1) solvent system, adjusted to pH 5.5 with ammonium hydroxide, was used at a flow rate of 0.7 ml/min. Cell derived LTB4 was quantified utilizing standard curves constructed with known amounts of synthetic LTB4.

[5] = test system: Arachidonic Acid-Induced Cellular Infiltration into the Rat Air Pouch; assay: Arachidonic acid-induced air pouch inflammation; type: in vivo, rat (male Lewis)
Text: as §1, §2
(§3) Rats were shaved on the dorsal flank, and then injected subcutaneously one day later with 20 ml of air to form a defined pouch, by the method of Sedgwick et al., J. Pathology, 141, 483-495 (1983). The air pouch was reinflated as necessary over the next 6 days. To assay anti-inflammatory activity, animals were treated orally with test compound or vehicle (10 ml/kg) one hour before injection of 2.0 ml of a 2.0% carrageenan suspension containing […] penicillin and 100 µg/ml streptomycin into the air pouch. In other experiments, 5 ml of 0.1% arachidonic acid in 0.2M bicarbonate buffer was injected two hours after drug treatment. Animals were sacrificed using CO2 three hours after instillation of irritant. The exudate was then aspirated from the pouch and neutrophil count and differential cell count were measured.

[6] = test system: Carrageenan-Induced Cellular Infiltration into the Rat Air Pouch; assay: Carrageenan-induced air pouch inflammation; type: in vivo, rat (male Lewis)
Text: as §1, §2, §3

O=C1CCN(c2ccccc2)N1 [Phenidone]
PMN infiltration, result in words [1]: effective | IC50 Cyclooxygenase [2]: Inactive @ 100 | Change in Paw Volume ([3]; 100 mg/kg, 2 hours post arachidonic acid): 0.13 ± 0.05 mL | Rat paw inflammatory response, result in words ([3]; rat, in vivo): inhibited significantly | inhibition at 200 mg/kg ([4]; Experiment 2): 21% | inhibition at 200 mg/kg ([4]; Experiment 3): 33% | LTB4 production ex vivo, result in words ([4]; mouse, in vivo): weaker but inhibition of LTB4 synthesis | Cellular Infiltrate MN ([5]; 100 mg/kg): 2.2 ± 1.5 Total × 10^-6 | Cellular Infiltrate PMN ([5]; 100 mg/kg): 1.3 ± 0.8 Total × 10^-6 | Exudate Volume ([5]; 100 mg/kg): 2.8 ± 0.4 mL | Cell infiltration into arachidonic acid air pouch, result in words ([5]; rat, in vivo): significantly reduced PMN and mononuclear cell infiltration | Cellular Infiltrate MN ([6]; 100 mg/kg): 3.5 ± 1.4 Total × 10^-6 | Cellular Infiltrate PMN ([6]; 100 mg/kg): 1.7 ± 0.6 Total × 10^-6 | Exudate Volume ([6]; 100 mg/kg): 1.5 ± 0.8 mL | Cell infiltration into carrageenan air pouch, result in words ([6]; rat, in vivo): reduction in the PMN count and the PMN:mononuclear cell ratio
